Earlier results as cited in US11304968B2, “Pharmaceutical compositions comprising a hydroxyethylquercetin glucuronide” (JANSSEN PHARMACEUTICA NV, priority 2018, dated 2022).
Values belong to the molecule of their own block, whether it stands above or below them.

How the values were obtained:
cortisol response = details: in vitro
[1] = rat
[2] = humans, oral; baicalin 616 mg with baicalein 52.5 mg; wogonoside 117.2 mg with wogonin 32 mg
[3] = not given; remark: listed apart in the source
cortisol levels = details: depressed, stressed rats
[4] = system: anxiety and depressive behaviors in the offspring; details: pregnant rats fed a high fat diet
[5] = human, in vivo, po
[6] = rat, in vivo, po

Molecule: C[C@@H]1O[C@@H](OC[C@H]2O[C@@H](Oc3c(-c4ccc(O)c(O)c4)oc4cc(OCCO)cc(O)c4c3=O)[C@H](O)[C@@H](O)[C@@H]2O)[C@H](O)[C@H](O)[C@H]1O [MonoHER, 7-monohydroxyethylrutoside]
- effect on cortisol response and cortisol resistance (cortisol response): protects the proper cortisol response and decreases cortisol resistance

Molecule: O=C(O)[C@H]1O[C@@H](Oc2cc3oc(-c4ccccc4)cc(=O)c3c(O)c2O)[C@H](O)[C@@H](O)[C@@H]1O [baicalin]
- solubility in water: poorly soluble in water
- site of absorption [1]: preferentially absorbs in the rat stomach
- urinary COV of metabolites [2]: about 10%

Molecule: O=C(O)[C@H]1O[C@@H](Oc2cc3oc(-c4ccc(O)cc4)cc(=O)c3c(O)c2O)[C@H](O)[C@@H](O)[C@@H]1O [scutellarin]
- pKa [3]: about 2.7
- solubility in water: poorly soluble in water

Molecule: C[C@@H]1O[C@@H](OC[C@H]2O[C@@H](Oc3c(-c4ccc(OCCO)c(OCCO)c4)oc4cc(OCCO)cc(O)c4c3=O)[C@H](O)[C@@H](O)[C@@H]2O)[C@H](O)[C@H](O)[C@H]1O [troxerutin, 7,3′,4′-trihydroxyethylrutoside]
- effect on cortisol levels (cortisol levels): decreased cortisol levels
- anxiety and depressive behaviors in the offspring [4]: reduced anxiety and depressive behaviors in the offspring

- volunteers in whom the metabolite was detectable [5]: 13 of the 16
- detectability as metabolite [6]: not detectable
Molecule: mono-3′-O-hydroxyethyl quercetin-glucuronide [Mono-3′-O-HEQG]
